{"source": "patent US20240207276A1", "about": "“COMBINATION COMPRISING A NEUROTENSIN RECEPTOR BINDING COMPOUND AND FOLFIRINOX” (Fusion Pharmaceuticals Inc., priority 2021, published 2024)", "tested_on": "AsPC1 tumors", "experiment": "Efficacy study in mice bearing subcutaneous AsPC1 tumors (tumor volume)", "type": "in vivo, SWISS Nude mice", "settings": "single treatments; FOLFIRINOX (Group 2) or ^177Lu-IPN01087 20 MBq/mouse IV weekly x3 (Group 3); FIG. 2", "experimental": "Example 1: Efficacy Study on Animals Induced with AsPC1 Cells\nThe AsPC1 cell line was isolated from a metastatic site (ascites) from a patient (Chen WH. et al., In Vitro. 1982 January; 18(1):24-34).\nTumor cells were grown as monolayer at 37° C. in a humidified atmosphere (5% C02, 95% air). The culture medium is RPMI 1640 containing glutamax supplemented with 10% heat inactivated fetal bovine serum, sodium pyruvate and hepes. For experimental use, tumor cells were detached from the culture flask using accutase and neutralized by addition of complete culture medium. The cells were counted and their viability was assessed by 0.25% trypan blue exclusion assay. Two frozen pellets of AsPC-1 tumor cells were prepared: one frozen cell pellet prepared during the in-vitro cell culture, and one frozen cell pellet prepared using the cell suspension used for tumor induction in mice.\nOne hundred fifty (150) healthy female SWISS Nude mice (Crl:NU(Ico)-Foxn1 nu), 7 weeks old at reception, were obtained from Charles River.\nTumors were induced by subcutaneous injection of ten million (107) AsPC-1 cells in 200 μL of RPMI 1640 medium containing matrigel (50:50, v:v, ref: 356237, BD Biosciences, France) into the right flank (in the axis of the heart) of 150 female animals. […]"}
{"substance": "^177Lu-zalsenertant tetraxetan [^177Lu-IPN01087]", "values": [{"measurement": "AsPC-1 tumor growth, antitumor effect compared to the vehicles", "value": "produced an antitumor effect"}]}
